Results from patent publication US5037812A, “Tumor cell growth-inhibiting pharmaceutical compositions containing phosphino-hydrocarbon-gold, silver or copper complexes” (priority 1986, dated 1991).
“And” between values parts separate entries of the source, which are not always exact repeats. Equal entries are not always repeated.

Experiments:
P388 leukemia = assay: ip P388 leukemia mouse model; type: in vivo, mice (B6D2F1); conditions: for MTD (maximally tolerated dose): B6D2F female mice, ip qDX5; for ILS max (maximum increase in lifespan): mice bearing ip P388 leukemia, ip days 1-5 at MTD, slash-separated figures are separate experiments
Protocol: This tumor system is widely accepted as an antitumor agent screening tool because it is sensitive to virtually all of the clinically active antineoplastic agents; quantitative and reproducible; amenable for large-scale screening; and predictive for activity in other animal tumor models.
10^6 P388 leukemia cells are inoculated ip in B6D2F1 mice. Twenty-four hours later, if the tumor inoculum proves to be free of bacterial contamination (as determined by 24 hours incubation in thioglycollate broth), animals are randomized into groups of 6 and housed in shoebox cages. […] An equal volume of saline or water is added; if the drug comes out of solution an equal volume of Cremophor (polyethoxylated castor oil) is added and then saline or water, as to a concentration such that the desired dose is delivered in 0.5 ml. The final concentration of DMA, ethanol or Cremophor is 10 percent. Dilutions for lower doses are made with saline or water so that there is a decreasing proportion of organic solvents in the vehicle with decreasing dosage. […] Formulations are prepared immediately prior to injection. The Formula (I) and Formula (II) compounds are administered ip on Days 1 through 5 (i.e., treatment is initiated 24 hrs after tumor inoculation). Each experiment includes three groups of 6 animals as untreated controls and animals treated with a positive control, cisplatin, at two dose levels. Animals are weighed as a group on Days 1, 5 and 9 and average weight change (Δwt.) is used as a reflection of toxicity. Each experiment also includes an inoculum titration--groups of 8 mice inoculated ip with 10^5 to 10^0 P388 leukemia cells. The titration is used as a quality control check for the performance of the tumor model. Animals are monitored daily for mortality and experiments are terminated after 45 days. The endpoint is median survival time (MST) and increase in lifespan (ILS) which is the percentage of increase in MST relative to untreated controls.

[1] = solubility in 9:1 water:ethanol (HPLC of filtrate); conditions: stirred 15 hours, 0.45 μm PTFE filter, HPLC
Protocol: Such solubility was determined as follows: The compound in question was dissolved or suspended in absolute ethanol (250 mg solid per 1.0 ml ethanol). To the resulting solution or suspension, water (9.0 times the volume of ethanol) was added. This suspension was stirred vigorously for 15 hours, then filtered through a 0.45 μm poly(tetrafluoroethylene) (PTFE) filter. […] The HPLC system was as follows:
Column PLRP-S, 5μm, obtained from Polymer Laboratories, Inc.
Mobile Phase 9:1 acetonitrile:0.1% tetra-n-butylammonium hydrogen sulfate (50° C., 1.0 ml-min-^-1)
Detection Ultraviolet (250 nm)

[2] = test system: M5076 reticulum cell sarcoma; assay: ip M5076 reticulum cell sarcoma in mice; type: in vivo, mice (B6D2F female); conditions: for MTD (maximally tolerated dose): B6D2F female mice, ip qDX10; for ILS max (maximum increase in lifespan): mice bearing ip M5076, ip qDX10 at MTD, slash-separated figures are separate experiments
Protocol: Another tumor model used for evaluation of tumor growth inhibiting drugs is intraperitoneally implanted M5076 reticulum cell sarcoma in mice. […] Drugs are administered ip. Daily treatment is begun 24 hours after implantation and is continued for ten days. The treatment regimen for M5076 is more prolonged than for P388 because of the slower growth rate and longer control survival time of the M5076 tumor. Compounds of Formula (I) and Formula (II) were evaluated in this assay. An evaluation of several compounds of Formula (I) in the M5076 reticulum cell sarcoma assay at their maximally tolerated dose (MTD) is set forth in Table III. An ILS of ≥25% indicates activity in this tumor model.
^(b) maximally tolerated dose for B6D2F female mice on an ip qDX10
^(c) maximum increase in lifespan produced in mice bearing ip M5076

B16 melanoma = assay: in vivo ip B16 melanoma assay; set-up: species or system mice (B6D2F1); conditions: ip qDX10; for MTD (maximally tolerated dose): B6D2F1 mice; for ILS (maximum increase in lifespan): mice bearing ip B16 melanoma, slash-separated figures are separate experiments
Protocol: Daily treatment is begun 24 hours after tumor implantation and is continued daily for ten (10) days. The route of drug administration is ip. The mice are monitored daily for survival for sixty (60) days. Antitumor activity is assessed by prolongation of median survival time. An ILS of ≥25% indicates activity in this tumor model.
^(b) maximally tolerated dose for B6D2F1 mice on an ip qDX10
^(c) maximum increase in lifespan produced in mice bearing ip B16

Row | Compound | MTD (maximally tolerated dose) (P388 leukemia) | ILS max (maximum increase in lifespan) (P388 leukemia) | Solubility in 9:1 Water:Ethanol [1] | MTD (maximally tolerated dose) [2] | ILS max (maximum increase in lifespan) [2] | MTD (maximally tolerated dose) (B16 melanoma) | ILS (maximum increase in lifespan) (B16 melanoma)
1 | O=[N+]([O-])[O-].[Au+].c1ccc(P(CCP(c2ccccc2)c2ccccc2)c2ccccc2)cc1.c1ccc(P(CCP(c2ccccc2)c2ccccc2)c2ccccc2)cc1 [compound 5, Bis[1,2-bis(diphenylphosphino)ethane]Gold(I) Nitrate] | 3 mg/kg | 90 ± 17% | 0.03 mg/mL |  |  |  | 
2 | Fc1cccc(P(CCP(c2cccc(F)c2)c2cccc(F)c2)c2cccc(F)c2)c1.Fc1cccc(P(CCP(c2cccc(F)c2)c2cccc(F)c2)c2cccc(F)c2)c1.[Au+].[Cl-] [compound 7, Bis[1,2-bis[bis(. Phosphino]ethane]Gold(I) Chloride] |  | 45% and 55% |  |  |  |  | 
3 | CCP(CC)CCP(c1ccccc1)c1ccccc1.CCP(CC)CCP(c1ccccc1)c1ccccc1.[Au+].[Cl-] [compound 8] | 3 mg/kg | 54 ± 16% |  | 2 mg/kg | 46% |  | 
4 | CCP(CC)CCP(c1ccccc1)c1ccccc1.CCP(CC)CCP(c1ccccc1)c1ccccc1.[Cl-].[Cu+] [compound 9] | 1.5 mg/kg | 48% and 45% |  |  |  |  | 
5 | CCP(CC)CCP(CC)CC.CCP(CC)CCP(CC)CC.F[P-](F)(F)(F)(F)F.[Au+] [compound 10, Bis[1,2-bis(diethylphosphino)ethane]Gold(I) Hexafluorophosphate] | 4 mg/kg | 40% and 30% |  |  |  |  | 
6 | [Cl-].[Cu+].c1ccc(P(CCCP(c2ccccc2)c2ccccc2)c2ccccc2)cc1.c1ccc(P(CCCP(c2ccccc2)c2ccccc2)c2ccccc2)cc1 [compound 12, Bis[1,3-bis(diphenylphosphino)propane]Copper(I) Chloride] | 2 mg/kg | 92 ± 15% |  |  |  | 1 mg/kg | 32% and 47%
7 | C1=C[PH](c2ccccc2)(c2ccccc2)[Cu+]2([PH]1(c1ccccc1)c1ccccc1)[PH](c1ccccc1)(c1ccccc1)C=C[PH]2(c1ccccc1)c1ccccc1.[Cl-] (stereo not drawn) [compound 13, Bis[cis-1,2-bis(diphenylphosphino)ethylene]Copper(I) Chloride] | 3 mg/kg | 70 ± 23% |  | 2 mg/kg | 40% | 0.75 mg/kg | 42%
8 | CS(=O)(=O)[O-].[Au+].c1ccc(P(CCP(c2ccccc2)c2ccccc2)c2ccccc2)cc1.c1ccc(P(CCP(c2ccccc2)c2ccccc2)c2ccccc2)cc1 [compound 14, Bis[1,2-bis(diphenylphosphino)ethane]gold(I) methanesulfonate] | 2 mg/kg | 81 ± 17% | 0.03 mg/mL |  |  |  | 
9 | CC(O)C(=O)[O-].[Au+].c1ccc(P(CCP(c2ccccc2)c2ccccc2)c2ccccc2)cc1.c1ccc(P(CCP(c2ccccc2)c2ccccc2)c2ccccc2)cc1 [compound 15, Bis[1,2-bis(diphenylphosphino)ethane]gold(I) 2-hydroxypropanoate] | 2 mg/kg | 71 ± 12% | 5.2 mg/mL |  |  | 1.5 mg/kg | 30%
10 | O=C([O-])C1OC(O)C(O)C(O)C1O.[Au+].c1ccc(P(CCP(c2ccccc2)c2ccccc2)c2ccccc2)cc1.c1ccc(P(CCP(c2ccccc2)c2ccccc2)c2ccccc2)cc1 [compound 16, Bis[1,2-bis(diphenylphosphino)ethane]gold(I) glucuronate] | 2 mg/kg | 64 ± 17% | 0.30 mg/mL |  |  | 1.5 mg/kg | 40%
11 | O=S(=O)([O-])[O-].c1ccc([PH]2(c3ccccc3)CC[PH](c3ccccc3)(c3ccccc3)[Au+]23[PH](c2ccccc2)(c2ccccc2)CC[PH]3(c2ccccc2)c2ccccc2)cc1.c1ccc([PH]2(c3ccccc3)CC[PH](c3ccccc3)(c3ccccc3)[Au+]23[PH](c2ccccc2)(c2ccccc2)CC[PH]3(c2ccccc2)c2ccccc2)cc1 (stereo not drawn) [compound 17, Bis{bis[1,2-bis(diphenylphosphino)ethane]gold(I)} sulfate] | 2 mg/kg | 74% and 50% | 0.03 mg/mL |  |  |  | 
12 | N#C[O-].[Au+].c1ccc(P(CCP(c2ccccc2)c2ccccc2)c2ccccc2)cc1.c1ccc(P(CCP(c2ccccc2)c2ccccc2)c2ccccc2)cc1 [compound 18, Bis[1,2-bis(diphenylphosphino)ethane]gold(I) cyanate] | 2 mg/kg | 84% and 50% | 0.06 mg/mL |  |  |  | 
13 | O=S(=O)([O-])C(F)(F)F.[Au+].c1ccc(P(CCP(c2ccccc2)c2ccccc2)c2ccccc2)cc1.c1ccc(P(CCP(c2ccccc2)c2ccccc2)c2ccccc2)cc1 [compound 20, Bis[1,2-bis(diphenylphosphino)ethane]gold(I) trifluoromethanesulfonate] | 2 mg/kg | 63% and 75% | 0.02 mg/mL |  |  |  | 
14 | CC(=O)C(=O)[O-].[Au+].c1ccc(P(CCP(c2ccccc2)c2ccccc2)c2ccccc2)cc1.c1ccc(P(CCP(c2ccccc2)c2ccccc2)c2ccccc2)cc1 [compound 21, Bis[1,2-bis(diphenylphosphino)ethane]gold(I) 2-oxopropanoate] | 2 mg/kg | 60% and 50% | 0.20 mg/mL |  |  |  | 
15 | O=C([O-])CCCO.[Au+].c1ccc(P(CCP(c2ccccc2)c2ccccc2)c2ccccc2)cc1.c1ccc(P(CCP(c2ccccc2)c2ccccc2)c2ccccc2)cc1 [compound 22, Bis[1,2-(diphenylphosphino)ethane]gold(I) 4-hydroxybutanoate] | 2 mg/kg | 65% and 70% | 2.9 mg/mL |  |  |  | 
16 | O=C([O-])CO.[Au+].c1ccc(P(CCP(c2ccccc2)c2ccccc2)c2ccccc2)cc1.c1ccc(P(CCP(c2ccccc2)c2ccccc2)c2ccccc2)cc1 [compound 23, Bis[1,2-bis(diphenylphosphino)ethane]gold(I) hydroxyacetate] | 2 mg/kg | 55% and 75% | 8.6 mg/mL |  |  |  | 
17 | CCC(O)C(=O)[O-].[Au+].c1ccc(P(CCP(c2ccccc2)c2ccccc2)c2ccccc2)cc1.c1ccc(P(CCP(c2ccccc2)c2ccccc2)c2ccccc2)cc1 [compound 24, Bis[1,2-bis(diphenylphosphino)ethane]gold(I) DL-2-hydroxybutanoate] | 2 mg/kg | 55% and 80% | 0.9 mg/mL |  |  |  | 
18 | Bis[1,2-bis(diethylphosphino)ethane]Silver(I) Nitrate [compound 11] | 0.5 mg/kg | 50% and 40% |  |  |  |  | 
19 | Bis[1,2-bis[bis(4-fluorophenyl)phosphino]ethane Gold(I) Chloride [compound 6] | 3 mg/kg | 55% and 50% |  |  |  |  | 
20 | Tris{bis-[1,2-bis(diphenylphosphino)ethane]gold(I)} citrate [compound 19] | 4 mg/kg | 95% and 90% | 0.03 mg/mL |  |  |  | 
